From the NIST ThermoML archive (doi:10.1021/je100581m)

Test: xn = mol fraction of the nth substance listed
Settings: Liquid, Vibrating tube method

C=CC(C)(O)CCC=C(C)C (stereo not given) [3,7-dimethyl-1,6-octadien-3-ol] + CC(C)O
mass density [kg/m3]
Settings | x2 = 0 | x2 = 0.1031 | x2 = 0.2049 | x2 = 0.3054 | x2 = 0.4056 | x2 = 0.5022 | x2 = 0.605 | x2 = 0.7008 | x2 = 0.7981 | x2 = 0.9092
283.15 K, 100 kPa | 869.5 | 866.3 | 862.7 | – | 854.1 | 848.8 | 842.3 | 834.6 | – | 809.3
283.15 K, 5000 kPa | 872.6 | 869.5 | – | 861.9 | 857.4 | 852.2 | 845.7 | – | 828.2 | 813.1
283.15 K, 10000 kPa | 875.7 | – | 869 | 864.9 | 860.5 | 855.3 | – | 841.4 | 831.6 | 816.6
283.15 K, 15000 kPa | – | 875.5 | 872.1 | 868.1 | 863.7 | – | 852.2 | 844.9 | 835.1 | 820.4
283.15 K, 20000 kPa | 881.5 | 878.5 | 875 | 870.9 | – | 861.6 | 855.3 | 848 | 838.4 | –
283.18 K, 100 kPa | – | – | – | 858.7 | – | – | – | – | 824.5 | –
283.18 K, 5000 kPa | – | – | 865.9 | – | – | – | – | 838.1 | – | –
283.18 K, 10000 kPa | – | 872.5 | – | – | – | – | 848.9 | – | – | –
283.18 K, 15000 kPa | 878.7 | – | – | – | – | 858.6 | – | – | – | –
283.18 K, 20000 kPa | – | – | – | – | 866.7 | – | – | – | – | 823.7
298.15 K, 100 kPa | 857.3 | 854.1 | 850.5 | 846.3 | 841.7 | 836.4 | 829.7 | 821.9 | 812 | 796.8
298.15 K, 5000 kPa | 860.6 | 857.4 | 853.9 | 849.8 | 845.2 | 839.9 | 833.3 | 825.6 | 815.9 | 800.9
298.15 K, 10000 kPa | 863.9 | 860.8 | 857.3 | 853.2 | 848.7 | 843.5 | 837 | 829.4 | 819.7 | 804.9
298.15 K, 15000 kPa | 867 | 864 | 860.5 | 856.5 | 852 | 846.9 | 840.4 | 832.9 | 823.4 | 808.8
298.15 K, 20000 kPa | 870 | 867 | 863.6 | 859.6 | 855.2 | 850.1 | 843.7 | 836.4 | 826.9 | 812.4
313.15 K, 100 kPa | 844.5 | 841.4 | 837.7 | 833.4 | 828.7 | 823.2 | 816.4 | 808.5 | 798.6 | 783.6
313.15 K, 5000 kPa | 848.2 | 845.1 | 841.5 | 837.3 | 832.6 | 827.2 | 820.6 | 812.8 | 803 | 788.2
313.15 K, 10000 kPa | 851.6 | 848.6 | 845.1 | 840.9 | 836.3 | 831 | 824.4 | 816.8 | 807.1 | 792.5
313.15 K, 15000 kPa | 855 | 852.1 | 848.6 | 844.5 | 840 | 834.8 | 828.2 | 820.6 | 811.1 | 796.7
313.15 K, 20000 kPa | 858.4 | 855.4 | 852 | 847.9 | 843.5 | 838.3 | 831.8 | 824.4 | 814.9 | 800.7
328.15 K, 100 kPa | 831.7 | 828.5 | – | 820.4 | 815.5 | 809.9 | 802.8 | – | 784.8 | 769.8
328.15 K, 5000 kPa | 835.6 | – | 828.8 | 824.5 | 819.7 | 814.2 | – | 799.4 | 789.5 | 774.8
328.15 K, 10000 kPa | – | 836.4 | 832.8 | 828.6 | 823.9 | – | 811.6 | 803.9 | 794.2 | 779.7
328.15 K, 15000 kPa | 843.1 | 840.1 | 836.5 | 832.3 | – | 822.3 | 815.6 | 808 | 798.4 | –
328.15 K, 20000 kPa | 846.7 | 843.6 | 840.2 | – | 831.5 | 826.1 | 819.5 | 812 | – | 788.4
328.18 K, 100 kPa | – | – | 824.8 | – | – | – | – | 794.9 | – | –
328.18 K, 5000 kPa | – | 832.5 | – | – | – | – | 807.2 | – | – | –
328.18 K, 10000 kPa | 839.5 | – | – | – | – | 818.4 | – | – | – | –
328.18 K, 15000 kPa | – | – | – | – | 827.8 | – | – | – | – | 784.1
328.18 K, 20000 kPa | – | – | – | 836 | – | – | – | – | 802.6 | –
